Results on three molecules are retold here after patent US20240252454A1, “COMPOSITION COMPRISING AN INHIBITOR OF MITOCHONDRIAL TRANSCRIPTION” (LEAD DISCOVERY CENTER GMBH, priority 2021, published 2024).

Common to all, as to assay: SRB assay, IMT combined with inhibitor
Holding throughout (assay type): cell-based
For orientation: Sulforhodamine B stains cellular protein and so reports cell mass.

The test system of test [1] is A549. As to conditions: A549 (lung); concentration series of the labelled inhibitor + fixed concentration of IMT (3S)-1-[(2R)-2-[4-(2-chloro-4-fluoro-phenyl)-2-oxo-chromen-7-yl]oxypropanoyl]piperidine-3-carboxylic acid (Table 3: 40 nM, 120 h); negative=synergistic, positive=antagonistic. The procedure: (§1) Solforhodamine B assay is carried out as described in Voigt W. (2005) Sulforhodamine B Assay and Chemosensitivity. (Methods in Molecular Medicine™, vol 110. Humana Press. https://doi.org/10.1385/1-59259-869-2:039).
(§2) The determination of changes in cellular biomass was based on the Solforhodamine B assay format, carried out as described in Voigt W. (2005) Sulforhodamine B Assay and Chemosensitivity. (Methods in Molecular Medicine™, vol 110. Humana Press. https://doi.org/10.1385/1-59259-869-2:039).
(§3) All in vitro cell culture experiments were carried out under near physiological glucose concentrations (5 mM) in at least two independent replicates.
(§4) First, 30 different cell lines from 14 different tissue types were tested in the SRB assay format. The cells were examined individually for changes in growth over a period of 120 hours with dilution series of both inhibitors. Untreated cells were used as a negative control group. Subsequently, a dilution series of the respective MAPK signalling pathway SOCs was treated in combination with a fixed concentration of 40 nM (3S)-1-[(2R)-2-[4-(2-chloro-4-fluoro-phenyl)-2-oxo-chromen-7-yl]oxypropanoyl]piperidine-3-carboxylic acid.

Test [2] concerns IMR90. The settings on record: IMR90 (lung); concentration series of the labelled inhibitor + fixed concentration of IMT (3S)-1-[(2R)-2-[4-(2-chloro-4-fluoro-phenyl)-2-oxo-chromen-7-yl]oxypropanoyl]piperidine-3-carboxylic acid (Table 3: 40 nM, 120 h); negative=synergistic, positive=antagonistic. The procedure:
as §1, §2, §3, §4

Test [3] has as its system SKOV3. As to conditions: SKOV3 (ovary); concentration series of the labelled inhibitor + fixed concentration of IMT (3S)-1-[(2R)-2-[4-(2-chloro-4-fluoro-phenyl)-2-oxo-chromen-7-yl]oxypropanoyl]piperidine-3-carboxylic acid (Table 3: 40 nM, 120 h); negative=synergistic, positive=antagonistic. On the procedure:
as §1, §2, §3, §4

The test system of test [4] is JAR. As to conditions: JAR (placenta); concentration series of the labelled inhibitor + fixed concentration of IMT (3S)-1-[(2R)-2-[4-(2-chloro-4-fluoro-phenyl)-2-oxo-chromen-7-yl]oxypropanoyl]piperidine-3-carboxylic acid (Table 3: 40 nM, 120 h); negative=synergistic, positive=antagonistic. The procedure:
as §1, §2, §3, §4

The test system of test [5] is LOVO. The settings on record: LOVO (colon); concentration series of the labelled inhibitor + fixed concentration of IMT (3S)-1-[(2R)-2-[4-(2-chloro-4-fluoro-phenyl)-2-oxo-chromen-7-yl]oxypropanoyl]piperidine-3-carboxylic acid (Table 3: 40 nM, 120 h); negative=synergistic, positive=antagonistic. The procedure:
as §1, §2, §3, §4

In test [6] the test system is KASUMI-1. The settings on record: KASUMI-1 (hematological); concentration series of the labelled inhibitor + fixed concentration of IMT (3S)-1-[(2R)-2-[4-(2-chloro-4-fluoro-phenyl)-2-oxo-chromen-7-yl]oxypropanoyl]piperidine-3-carboxylic acid (Table 3: 40 nM, 120 h); negative=synergistic, positive=antagonistic. On the procedure: as §1, §2, §3, §4
Test [7] has as its system SKMEL28. As to conditions: SKMEL28 (skin); concentration series of the labelled inhibitor + fixed concentration of IMT (3S)-1-[(2R)-2-[4-(2-chloro-4-fluoro-phenyl)-2-oxo-chromen-7-yl]oxypropanoyl]piperidine-3-carboxylic acid (Table 3: 40 nM, 120 h); negative=synergistic, positive=antagonistic. The procedure: as §1, §2, §3, §4
The subject of test [8] is HT29. The settings on record: HT29 (colon); concentration series of the labelled inhibitor + fixed concentration of IMT (3S)-1-[(2R)-2-[4-(2-chloro-4-fluoro-phenyl)-2-oxo-chromen-7-yl]oxypropanoyl]piperidine-3-carboxylic acid (Table 3: 40 nM, 120 h); negative=synergistic, positive=antagonistic. On the procedure: as §1, §2, §3, §4
The test system of test [9] is PANC1. The settings on record: PANC1 (pancreas); concentration series of the labelled inhibitor + fixed concentration of IMT (3S)-1-[(2R)-2-[4-(2-chloro-4-fluoro-phenyl)-2-oxo-chromen-7-yl]oxypropanoyl]piperidine-3-carboxylic acid (Table 3: 40 nM, 120 h); negative=synergistic, positive=antagonistic. The procedure: as §1, §2, §3, §4
Test [10] deals with NCIH460. As to conditions: NCIH460 (lung); concentration series of the labelled inhibitor + fixed concentration of IMT (3S)-1-[(2R)-2-[4-(2-chloro-4-fluoro-phenyl)-2-oxo-chromen-7-yl]oxypropanoyl]piperidine-3-carboxylic acid (Table 3: 40 nM, 120 h); negative=synergistic, positive=antagonistic. The procedure: as §1, §2, §3, §4
Test [11] has as its system MV4-11. The settings on record: MV4-11 (hematological); concentration series of the labelled inhibitor + fixed concentration of IMT (3S)-1-[(2R)-2-[4-(2-chloro-4-fluoro-phenyl)-2-oxo-chromen-7-yl]oxypropanoyl]piperidine-3-carboxylic acid (Table 3: 40 nM, 120 h); negative=synergistic, positive=antagonistic. The procedure:
as §1, §2, §3, §4

In test [12] the test system is HEPG2. The settings on record: HEPG2 (liver); concentration series of the labelled inhibitor + fixed concentration of IMT (3S)-1-[(2R)-2-[4-(2-chloro-4-fluoro-phenyl)-2-oxo-chromen-7-yl]oxypropanoyl]piperidine-3-carboxylic acid (Table 3: 40 nM, 120 h); negative=synergistic, positive=antagonistic. On the procedure: as §1, §2, §3, §4
Test [13] has as its system SW620. The settings on record: SW620 (colon); concentration series of the labelled inhibitor + fixed concentration of IMT (3S)-1-[(2R)-2-[4-(2-chloro-4-fluoro-phenyl)-2-oxo-chromen-7-yl]oxypropanoyl]piperidine-3-carboxylic acid (Table 3: 40 nM, 120 h); negative=synergistic, positive=antagonistic. On the procedure:
as §1, §2, §3, §4

Test [14] concerns U2OS. As to conditions: U2OS (bone); concentration series of the labelled inhibitor + fixed concentration of IMT (3S)-1-[(2R)-2-[4-(2-chloro-4-fluoro-phenyl)-2-oxo-chromen-7-yl]oxypropanoyl]piperidine-3-carboxylic acid (Table 3: 40 nM, 120 h); negative=synergistic, positive=antagonistic. The procedure:
as §1, §2, §3, §4

Test [15] deals with MIAPACA2. The settings on record: MIAPACA2 (pancreas); concentration series of the labelled inhibitor + fixed concentration of IMT (3S)-1-[(2R)-2-[4-(2-chloro-4-fluoro-phenyl)-2-oxo-chromen-7-yl]oxypropanoyl]piperidine-3-carboxylic acid (Table 3: 40 nM, 120 h); negative=synergistic, positive=antagonistic. On the procedure:
as §1, §2, §3, §4

`CC(C)Nc1cc(-c2c[nH]c(C(=O)N[C@H](CO)c3cccc(Cl)c3)c2)c(Cl)cn1` [Ulixertinib]: the “difference between the calculated combinatorial index (BLISS) and the observed combinatorial effect” value in [1] is on record as −0.0185; in [2], 0.0678; in test [3], 0.0284; in test [4], 0.0116; in test [5], 0.0039; in test [6], 0.0068. In addition, the “difference between the calculated combinatorial index (BLISS) and the observed combinatorial effect” value is 0.0022 in [7]; 0.0702 in test [8]; 0.0634 in [9]; 0.0088 in [10]; 0.0079 in [11]; 0.0953 in [12]. Besides, the “difference between the calculated combinatorial index (BLISS) and the observed combinatorial effect” value is 0.0256 in test [13], −0.0165 in test [14] and 0.0431 in test [15].

With `Cc1cc(C(=O)NOCCO)c(Nc2ccc(I)cc2F)n(C)c1=O` [AZD8330, 2-((2-Fluoro-4-iodophenyl)amino)-N-(2-hydroxyethoxy)-1,5-dimethyl-6-oxo-1,6-dihydropyridine-3-carboxamide], the “difference between the calculated combinatorial index (BLISS) and the observed combinatorial effect” value in test [1] is reported as −0.0341; in test [2] it was 0.0338; in [3] it was −0.0609; in test [4], 0.0124; in [5] it was 0.0047; in test [6], −0.0326. Moreover, the “difference between the calculated combinatorial index (BLISS) and the observed combinatorial effect” value is reported as 0.0300 in test [7]; 0.0488 in [8]; 0.0157 in test [9]; 0.0015 in [10]; 0.0680 in test [11]; 0.0270 in test [12]. For the same molecule, the “difference between the calculated combinatorial index (BLISS) and the observed combinatorial effect” value in test [13] is given as −0.0037; in test [14] it was −0.0171; in [15], 0.1347.

With `CS(=O)(=O)N1CCN(Cc2cc3nc(-c4cccc5[nH]ncc45)nc(N4CCOCC4)c3s2)CC1` [GDC-0941, 2-(1H-Indazol-4-yl)-6-[[4-(methylsulfonyl)-1-piperazinyl]methyl]-4-(4-morpholinyl)thieno[3,2-d]pyrimidine], the “difference between the calculated combinatorial index (BLISS) and the observed combinatorial effect” value is on record as 0.0023 in [1]; 0.0629 in [2]; 0.0556 in test [3]; 0.0136 in test [4]; −0.0539 in [5]; 0.0051 in test [6]. For the same molecule, the “difference between the calculated combinatorial index (BLISS) and the observed combinatorial effect” value in test [7] is reported as −0.0330; in test [8], 0.1027; in [9] it was −0.0128; in [10], −0.0178; in test [11], 0.0272; in test [12], −0.0006. Also, the results for the “difference between the calculated combinatorial index (BLISS) and the observed combinatorial effect” value in [13], in test [14] and in [15] were 0.0303, 0.0451 and 0.0516, respectively.
